The text below walks through data of patent US11691949B2, “Quinoline sulfonamide compounds and their use as antibacterial agents” (OTAGO INNOVATION LIMITED, priority 2017, dated 2023).

Values after ≈ are worked out from the molar mass of the structure shown. Read-outs that look alike come from different tables or passages of the source.

What all share (type): cell-based
Assay [1] has as its system S. uberis ATCC 19436. As to the kind of experiment: MIC by broth microdilution, S. uberis. The note with it: Streptococcus uberis, read-out: S. uberis ATCC 19436 MIC. As for the experimental part: (§1) Antibacterial susceptibility testing was performed in triplicate (biological) by measuring minimum inhibitory concentrations (MICs) by broth microdilution in 96-well flat bottom microtiter plates (ThermoFisher Scientific, New Zealand). S. uberis ATCC 19436, S. aureus ATCC 6538, or E. coli ATCC 10596 cells grown overnight were diluted to an OD600 of approximately 0.025, so that the final concentration of cells in the MIC assay was approximately 5×10^5 cfu/mL in media as follows: S. uberis; Todd Hewitt Broth (THB), S. aureus; Tryptic Soy Broth (TSB) and Cation Adjusted Muller Hinton Broth (CAMHB), and E. coli; Lysogeny Borth (LB) and CAMHB, before being dispensed into microtiter wells. As required additional sterile Zinc Sulphate (Heptahydrate) was supplemented into the media, so the final concentration was 50 μM. Test compounds were added to starting wells and two-fold serial dilutions were undertaken to generate a range of inhibitor concentrations at a final volume of 200 μl. Media and test compound-free (untreated) controls were included in each microtiter plate in triplicate. After 24 h incubation at 37° C. and 200 rpm, the OD600 of wells were read using a Varioskan Flash plate reader (ThermoFisher Scientific, New Zealand). The MIC was reported as the lowest concentration of the test compound for which no growth occurred, as determined by OD600 readings. The minimum bactericidal concentration (MBC) was determined using the Miles-Misra drop-plate method to measure the viability of cells in response to test compound challenge.

Assay [2] deals with S. aureus ATCC 6538. As to the kind of experiment: MIC by broth microdilution, S. aureus. To be noted: Staphylococcus aureus, read-out: S. aureus ATCC 6538 MIC. The method, then: as §1
(In general: In broth dilution the organism is exposed to a series of concentrations in liquid medium.)

The subject of assay [3] is E. coli ATCC 10596. The assay can be described thus: MIC by broth microdilution, E. coli. The note with it: Escherichia coli, read-out: E. coli ATCC 10536 MIC. As for the experimental part: as §1
The mark [4] stands for this setting: ATCC 10536 / ATCC 10596, No Zinc.
The mark [5] stands for this setting: ATCC 10536 / ATCC 10596, Zinc (50 μM).

For orientation: MIC means the lowest concentration found to suppress growth. For the compound `CN(C)Cc1ccc2cccc(NS(=O)(=O)c3cccc(C(F)(F)F)c3)c2n1` [ZDR074, N-(2-((Dimethylamino)methyl)quinolin-8-yl)-3-(trifluoromethyl)benzenesulfonamide], the minimum inhibitory concentration (MIC) in assay [1] (ATCC19436, No Zinc) is greater than 256 µg/mL; in assay [1] (ATCC19436, Zinc (50 μM)), 0.0625 µg/mL (≈ 0.153 µM); in assay [2] (ATCC6538, No Zinc) it was greater than 256 µg/mL; in assay [2] (ATCC6538, Zinc (50 μM)) it was greater than 256 µg/mL; in assay [3] (setting [4]), 256 µg/mL (≈ 625 µM); in assay [3] (setting [5]), 256 µg/mL (≈ 625 µM).

Turning to `CN(C)Cc1ccc2cccc(NS(=O)(=O)c3ccccc3C(F)(F)F)c2n1` [ZDR075, N-(2-((Dimethylamino)methyl)quinolin-8-yl)-2-(trifluoromethyl)benzenesulfonamide], the MIC is 256 µg/mL (≈ 625 µM) in assay [1] (ATCC19436, No Zinc); 0.125 µg/mL (≈ 0.305 µM) in assay [1] (ATCC19436, Zinc (50 μM)); greater than 256 µg/mL in assay [2] (ATCC6538, No Zinc); greater than 256 µg/mL in assay [2] (ATCC6538, Zinc (50 μM)); greater than 256 µg/mL in assay [3] (setting [4]); greater than 256 µg/mL in assay [3] (setting [5]).

Turning to `CN(C)Cc1ccc2cccc(NS(=O)(=O)c3cccc(C#N)c3)c2n1` [ZDR076, 3-cyano-N-(2-((dimethylamino)methyl)quinolin-8-yl)benzenesulfonamide], the MIC in assay [1] (ATCC19436, No Zinc) is greater than 256 µg/mL; in assay [1] (ATCC19436, Zinc (50 μM)), 1 µg/mL (≈ 2.73 µM); in assay [2] (ATCC6538, No Zinc) it was greater than 256 µg/mL; in assay [2] (ATCC6538, Zinc (50 μM)) it was greater than 256 µg/mL; in assay [3] (setting [4]), greater than 256 µg/mL; in assay [3] (setting [5]) it was greater than 256 µg/mL.

Consider `CN(C)Cc1ccc2cccc(NS(=O)(=O)c3ccccc3C#N)c2n1` [ZDR077, N-(2-((Dimethylamino)methyl)quinolin-8-yl)-2-cyanobenzenesulfonamide], for which the MIC in assay [1] (ATCC19436, No Zinc) was greater than 256 µg/mL; in assay [1] (ATCC19436, Zinc (50 μM)), 1 µg/mL (≈ 2.73 µM); in assay [2] (ATCC6538, No Zinc), greater than 256 µg/mL; in assay [2] (ATCC6538, Zinc (50 μM)) it was greater than 256 µg/mL; in assay [3] (setting [4]), greater than 256 µg/mL; in assay [3] (setting [5]) it was greater than 256 µg/mL.

`CN(C)Cc1ccc2cccc(NS(C)(=O)=O)c2n1` [ZDR078, N-(2-((Dimethylamino)methyl)quinolin-8-yl)methanesulfonamide]: the MIC in assay [1] (ATCC19436, No Zinc) is greater than 256 µg/mL; in assay [1] (ATCC19436, Zinc (50 μM)), 2 µg/mL (≈ 7.16 µM); in assay [2] (ATCC6538, No Zinc), greater than 256 µg/mL; in assay [2] (ATCC6538, Zinc (50 μM)), greater than 256 µg/mL; in assay [3] (setting [4]), greater than 256 µg/mL; in assay [3] (setting [5]), greater than 256 µg/mL.

For the compound `CN(C)Cc1ccc2cccc(NS(=O)(=O)C(F)(F)F)c2n1` [ZDR079, N-(2-((Dimethylamino)methyl)quinolin-8-yl)-1,1,1-trifluoromethanesulfonamide], the minimum inhibitory concentration (MIC) in assay [1] (ATCC19436, No Zinc) is greater than 256 µg/mL; in assay [1] (ATCC19436, Zinc (50 μM)) it was 0.5 µg/mL (≈ 1.5 µM); in assay [2] (ATCC6538, No Zinc), greater than 256 µg/mL; in assay [2] (ATCC6538, Zinc (50 μM)) it was 256 µg/mL (≈ 768 µM); in assay [3] (setting [4]), greater than 256 µg/mL; in assay [3] (setting [5]), 64 µg/mL (≈ 192 µM).

On to `CN(C)Cc1ccc2cccc(NS(=O)(=O)c3cccs3)c2n1` [ZDR080, N-(2-((Dimethylamino)methyl)quinolin-8-yl)thiophene-2-sulfonamide], for which the MIC in assay [1] (ATCC19436, No Zinc) is greater than 256 µg/mL; in assay [1] (ATCC19436, Zinc (50 μM)) it was 0.25 µg/mL (≈ 0.719 µM); in assay [2] (ATCC6538, No Zinc), greater than 256 µg/mL; in assay [2] (ATCC6538, Zinc (50 μM)), greater than 256 µg/mL; in assay [3] (setting [4]), greater than 256 µg/mL; in assay [3] (setting [5]), greater than 256 µg/mL.

With `CN(C)Cc1ccc2cccc(NS(=O)(=O)c3ccsc3)c2n1` [ZDR081, N-(2-((Dimethylamino)methyl)quinolin-8-yl)thiophene-3-sulfonamide], the MIC in assay [1] (ATCC19436, No Zinc) is 256 µg/mL (≈ 737 µM); in assay [1] (ATCC19436, Zinc (50 μM)), 0.25 µg/mL (≈ 0.719 µM); in assay [2] (ATCC6538, No Zinc), greater than 256 µg/mL; in assay [2] (ATCC6538, Zinc (50 μM)), greater than 256 µg/mL; in assay [3] (setting [4]) it was greater than 256 µg/mL; in assay [3] (setting [5]), greater than 256 µg/mL.

In the case of `Cc1noc(C)c1S(=O)(=O)Nc1cccc2ccc(CN(C)C)nc12` [ZDR082, N-(2-((Dimethylamino)methyl)quinolin-8-yl)-3,5-dimethylisoxazole-4-sulfonamide], the MIC was greater than 256 µg/mL in assay [1] (ATCC19436, No Zinc); 0.125 µg/mL (≈ 0.347 µM) in assay [1] (ATCC19436, Zinc (50 μM)); greater than 256 µg/mL in assay [2] (ATCC6538, No Zinc); greater than 256 µg/mL in assay [2] (ATCC6538, Zinc (50 μM)); greater than 256 µg/mL in assay [3] (setting [4]); greater than 256 µg/mL in assay [3] (setting [5]).

Turning to `CN(C)Cc1ccc2cccc(NS(=O)(=O)c3cccc(Cl)c3)c2n1` [ZDR084, 3-Chloro-N-(2-((dimethylamino)methyl)quinolin-8-yl)benzenesulfonamide], the minimum inhibitory concentration (MIC) was 128 µg/mL (≈ 341 µM) in assay [1] (ATCC19436, No Zinc); 0.0625 µg/mL (≈ 0.166 µM) in assay [1] (ATCC19436, Zinc (50 μM)); 256 µg/mL (≈ 681 µM) in assay [2] (ATCC6538, No Zinc); greater than 256 µg/mL in assay [2] (ATCC6538, Zinc (50 μM)); 256 µg/mL (≈ 681 µM) in assay [3] (setting [4]); greater than 256 µg/mL in assay [3] (setting [5]).
